Values quoted from earlier work, collected in article PMC9063426, “MAP kinases differentially bind and phosphorylate NOS3 via two unique NOS3 sites” (FEBS Open Bio, 2022).
Where no end group is shown, it is not given here.

Columns and labels:
[1] = tested on: NOS3; conditions: endothelial cells, inhibition and dominant negative experiments, via S114 phosphorylation; ref [10]; cited from earlier work
[2] = tested on: ERK-NOS3 complexes; parameters: method as in PMID 10899167; conditions: BAECs treated with bradykinin; ref [9]; cited from earlier work

| Substance | cellular NO production [1] | effect on ERK-NOS3 complexes [2] |
| --- | --- | --- |
| JNK2: JNK2, shown to inhibit cellular NO production | inhibited cellular NO production |  |
| RPPGFSPFR [bradykinin] |  | caused ERK to disassociate from NOS3 complexes and over time the complex reassociated |
